Here are results for 23 compounds from ChEMBL document CHEMBL1134971, “Novel human histamine H(3) receptor antagonists” (Bioorg Med Chem Lett, 2002).

T1 sequence (Q9Y5N1 whole entry): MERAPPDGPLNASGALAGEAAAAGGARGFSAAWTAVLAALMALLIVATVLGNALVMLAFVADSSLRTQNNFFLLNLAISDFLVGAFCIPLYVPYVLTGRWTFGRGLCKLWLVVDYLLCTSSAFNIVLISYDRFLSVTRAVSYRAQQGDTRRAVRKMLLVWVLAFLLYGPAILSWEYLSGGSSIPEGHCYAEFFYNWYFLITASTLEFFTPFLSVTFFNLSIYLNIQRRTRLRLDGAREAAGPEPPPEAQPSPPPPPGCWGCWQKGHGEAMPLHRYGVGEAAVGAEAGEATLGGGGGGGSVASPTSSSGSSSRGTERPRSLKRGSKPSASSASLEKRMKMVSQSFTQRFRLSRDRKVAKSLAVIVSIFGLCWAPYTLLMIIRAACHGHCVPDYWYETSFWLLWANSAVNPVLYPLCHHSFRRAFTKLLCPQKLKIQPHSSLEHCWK
T2 sequence (Q9QYN8 whole entry): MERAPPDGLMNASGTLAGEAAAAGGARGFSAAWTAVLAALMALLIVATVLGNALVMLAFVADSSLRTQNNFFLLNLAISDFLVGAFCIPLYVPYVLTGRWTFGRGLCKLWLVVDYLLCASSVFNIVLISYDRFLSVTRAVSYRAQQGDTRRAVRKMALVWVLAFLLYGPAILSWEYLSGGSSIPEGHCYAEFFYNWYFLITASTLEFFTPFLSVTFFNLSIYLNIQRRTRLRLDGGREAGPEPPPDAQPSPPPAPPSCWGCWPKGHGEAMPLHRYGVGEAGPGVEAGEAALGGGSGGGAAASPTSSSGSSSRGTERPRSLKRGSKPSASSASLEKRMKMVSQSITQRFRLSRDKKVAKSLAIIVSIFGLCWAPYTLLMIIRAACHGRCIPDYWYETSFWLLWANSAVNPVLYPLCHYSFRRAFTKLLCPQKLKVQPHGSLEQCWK

Test system in one series: not listed separately
As to the kind of experiment: Oral bioavailability in rat. Type of series: ADME, organism-based. Particulars: in vivo, read-out: Bioavailabiility.
Turning to `Cc1ccn2cc(-c3ccc(OCCCN4CCCCC4)cc3)nc2c1`, the bioavailability was 57%.

Test system in the next series: not listed separately
Kind of series: Half life in rat was tested. The class given is ADME, organism-based. Particulars: in vivo.
In the case of `Cc1ccn2cc(-c3ccc(OCCCN4CCCCC4)cc3)nc2c1`, the half-life was 5.2 h.

A further series has as its target T1, Histamine H3 receptor (Homo sapiens, UniProt Q9Y5N1). As to the kind of experiment: Compound was tested for its binding affinity against human histamine H3 receptor.
Conditions: not given
Compound `CCCCN(CCCC)CCCOc1ccc(-c2cn3cccc(C)c3n2)cc1` displayed an inhibitory constant (Ki) of 4000 nM. That is a single-digit micromolar value.

The next series concerns the target T1, Histamine H3 receptor. As to the kind of experiment: Binding affinity for human histamine H3 receptor.
Conditions: not given
`Cc1cccn2cc(-c3ccc(OCCCN4CCOCC4)cc3)nc12` had an inhibition constant (Ki) of 80 nM. This counts as double-digit nanomolar. On the same count and under the same terms, to `Cc1ccn2cc(-c3ccc(C#CCCN4CCCCC4)cc3)nc2c1` belongs 7 nM; to `COc1cc(-c2cn3ccc(C)cc3n2)ccc1OCCCN1CCCCC1`, 69 nM. Still for that read-out and setting: the value for `Cc1cccn2cc(-c3ccc(NS(=O)(=O)CCCN4CCCCC4)cc3)nc12` was 500 nM. Regarding `Cc1ccn2cc(-c3ccc(CCCCN4CCCCC4)cc3)nc2c1`, affinity was put at a Ki of 17 nM.

Take `Cc1ccn2cc(-c3ccc(OCCCN4CCCC4)cc3)nc2c1`: the affinity corresponds to a Ki of 5 nM. This Ki is about 3.4-fold lower than that of the compound before. Regarding `Cc1ccn2cc(-c3ccc(/C=C/CCN4CCCCC4)cc3)nc2c1`, the Ki amounted to 22 nM. The compound `Cc1ccn2cc(-c3ccc(OCCCN4CCCCCC4)cc3)nc2c1` returned a Ki of 6 nM. Turning to `CCCCN(CCCC)CCCOc1ccc(-c2nc3c(C)cccn3c2C)cc1`, the affinity, expressed as Ki, was 870 nM. This Ki lies about 140-fold higher than the previous one. The same measure, in the same setting: to `Cc1ccn2cc(-c3ccc(OCCCN4CCCCC4)cc3C)nc2c1` belongs 2 nM.

As to `Cc1cccn2cc(-c3ccc(OCCCn4ccnc4)cc3)nc12`, the Ki is 1000 nM. In turn, `Cc1cccn2cc(-c3ccc(NC(=O)CCN4CCCCC4)cc3)nc12` displayed an inhibition constant (Ki) of 300 nM.

The compound `CCCCN(CCCC)CCCOc1ccc(-c2cn3cccc([N+](=O)[O-])c3n2)cc1` came in with a Ki of 11000 nM. On the same count and under the same terms, to `Cc1cccn2cc(-c3ccc(OCCCN(C(C)c4ccccc4)C(C)c4ccccc4)cc3)nc12` (configuration not stated) belongs 4000 nM; to `c1ccn2cc(-c3ccc(OCCCN4CCCCC4)cc3)nc2c1`, 6 nM. `Cc1cc(-c2cn3ccccc3n2)ccc1OCCCN1CCCCC1` displayed a Ki of 28 nM. As for `Cc1cccn2cc(-c3ccc(OCCCN4CCCCC4)cc3)nc12`, the affinity, expressed as Ki, was 3 nM. Same read-out and setting: the value for `CCCN(CCC)CCCOc1ccc(-c2cn3cccc(C)c3n2)cc1` was 43 nM; that for `Cc1cccn2cc(-c3ccc(OCCCN(C)C)cc3)nc12` was 13 nM; that for `Cc1cccn2cc(-c3ccc(NCCCN4CCCCC4)cc3)nc12` was 15 nM.

The target in the next series is Histamine H3 receptor (Rattus norvegicus) (UniProt Q9QYN8). As to the kind of experiment: Ex-vivo effective dose required for rat histamine H3 receptor occupancy by the compound using [3H]R-alpha-methylhistamine upon subcutaneous administration.
Chain of Histamine H3 receptor (Rattus norvegicus) (Q9QYN8 whole entry): as above
Conditions: not given
In turn, `Cc1ccn2cc(-c3ccc(OCCCN4CCCCC4)cc3)nc2c1` registered an ED50 of 0.2 mg/kg. The same measure, in the same setting: the value for `S=C(NC1CCCCC1)N1CCC(c2cnc[nH]2)CC1` was 2 mg/kg.

Another series concerns the target T2, Histamine H3 receptor (Rattus norvegicus, UniProt Q9QYN8). As to the kind of experiment: Antagonist activity for rat histamine H3 receptor was determined. Type of series: functional. Particulars: read-out: pA2 (converted).
For the compound `Cc1ccn2cc(-c3ccc(OCCCN4CCCCC4)cc3)nc2c1`, the Kb was 4.68 nM.

The next series addresses T2, Histamine H3 receptor. Kind of series: Compound was tested for its binding affinity for rat histamine H3 receptor.
Conditions: not given
For `Cc1ccn2cc(-c3ccc(OCCCN4CCCCC4)cc3)nc2c1`, the Ki is 10 nM.
